US10334850B2, “Recombinant microorganism expressing avermectin analogue and use thereof” (Zhejiang Hisun Pharmaceutical Co., Ltd., priority 2014, dated 2019)

Tested on: pine wood nematodes
Assay: Toxicity assay against pine wood nematodes (immersion method)
Format: in vivo
Details: 24 h
Description: 3. Activity assay of tenvermectins against pine wood nematodes: The indoor activities of sixteen-membered macrolide compounds such as tenvermectins, avermectins, ivermectin, milbemycins, emamectin benzoate were assayed, wherein pine wood nematodes were used as the test insects. The aim was to compare the difference in activities of such medicaments on pine wood nematodes.
Test medicaments: five kinds of medicaments, i.e. 0.5% avermectins emulsifiable concentrate, 0.5% tenvermectins emulsifiable concentrate, 0.5% ivermectin emulsifiable concentrate, 2% milbemycins emulsifiable concentrate, 2.5% emamectin benzoate microemulsion.
Test Method: The immersion method was adopted. Five mass concentrations 2, 5, 10, 20, 50 mg/L were set for each of the medicaments, and each concentration was repeated for three times. The experimental results were subjected to statistics after 24 h (see Table 5).

emamectin benzoate
Mortality at different concentrations (mg/L, %) (2 mg/L): 48.27%
Mortality at different concentrations (mg/L, %) (5 mg/L): 61.68%
Mortality at different concentrations (mg/L, %) (10 mg/L): 67.44%
Mortality at different concentrations (mg/L, %) (20 mg/L): 75%
Mortality at different concentrations (mg/L, %) (50 mg/L): 86.67%

ivermectin
Mortality at different concentrations (mg/L, %) (2 mg/L): 18.52%
Mortality at different concentrations (mg/L, %) (5 mg/L): 42.55%
Mortality at different concentrations (mg/L, %) (10 mg/L): 57.47%
Mortality at different concentrations (mg/L, %) (20 mg/L): 58.33%
Mortality at different concentrations (mg/L, %) (50 mg/L): 78.94%
